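Method: 48-hour compound exposure of cells in 96-well plates, five concentrations, linear interpolation of endpoints. GI50 marks 50% less growth. TGI: total growth inhibition.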

This passage reports TGI and GI50 results from PubChem BioAssay (NCI).

Holding throughout (assay): growth of human tumour cells (NCI), 48 h
The subject of assay [1] is BT-549 breast.
The subject of assay [2] is K-562 leukemia.
For assay [3], the system named is RXF 393 renal.
The subject of assay [4] is SF-539 CNS.
The test system of assay [5] is HCT-15 colon.
Assay [6] concerns EKVX NSCLC.
For assay [7], the system named is SK-MEL-2 melanoma.
Assay [8] relates to TK-10 renal.
In assay [9] the test system is HS 578T breast.
Assay [10] has as its system SK-MEL-28 melanoma.

Regarding `O=c1c2cc(S(=O)(=O)O)ccc2nc(COc2ccc(Oc3ccc(Cl)cc3Cl)cc2)n1-c1ccc(Oc2ccc(Cl)cc2)cc1Cl`, the TGI in assay [1] worked out at 34.3 µM; in assay [2], 83.1 µM; in assay [3], 17.9 µM; in [4] it was 32.3 µM; in assay [5], 43.8 µM; in [6], 44.5 µM. The figures for the TGI in assay [7], in [8] and in [9] were 32.2 µM, 58.8 µM and 42.3 µM, respectively.
Consider `COC(=O)C1=C(OC(=O)/C(=C/c2ccc(Cl)cc2)c2ccc(Cl)cc2)C(C(=O)OC)[C@]2(O)[C@@H](C(=O)OC)[C@H]1C[C@@H](c1ccccc1)[C@@H]2C(=O)OC` (stereo partly specified), for which the TGI in assay [1], in [2], in [3], in assay [4], in [5] and in assay [10] was above 100 µM in each case. Besides, the TGI in [6], in assay [7] and in assay [8] was above 100 µM each time.
Consider `Cc1c(-c2ccccc2)[nH]c2cc(Cl)ccc2c1=O`, for which the TGI in assay [1] is above 100 µM; in assay [2], above 100 µM; in assay [3] it was 79.5 µM; in [4] it was above 100 µM; in [5] it was above 100 µM; in assay [10] it was above 100 µM. The TGI in assay [6] is above 100 µM; in [7], above 100 µM; in assay [8], above 100 µM; in assay [9], 65.6 µM.
`C=C(C)C1Cc2c(c3ccccc3n(C)c2=O)O1` (stereo unspecified): the TGI in [2], in [4], in assay [5], in [10], in assay [6] and in assay [7] was above 100 µM each time. In assay [8], this compound came in with a TGI above 100 µM.
Take `CCOC(=O)c1c(C)n(-c2ccc(Cl)cc2)c2c1cc(O)c1[nH]c3c(c12)CCCC3`: the TGI in assay [1], in assay [2], in assay [3], in assay [4], in assay [5] and in assay [10] was above 100 µM each time. The TGI in [6] is above 100 µM; in assay [7], 92.9 µM; in assay [8] it was above 100 µM; in [9], 72.4 µM.
For the compound `CC1=C(O)C2=C(C(=O)C1=O)[C@@H](C)CC[C@@H]2[C@@H](C)C/C=C/C(C)(C)O`, the TGI in assay [2], in assay [4], in assay [5], in [7] and in assay [9] was above 100 µM in each case.
For `COC(=O)c1c(C)n([O-])c2cc(Cl)c(Cl)cc2[n+]1=O`, the TGI was above 100 µM in assay [1]; above 100 µM in assay [2]; above 100 µM in [3]; 54.4 µM in assay [4]; 37.9 µM in assay [5]; 92.1 µM in [10]. Moreover, the TGI in assay [6] was 67.7 µM; in assay [7], 82.1 µM; in [8], 61.5 µM; in assay [9], 65.6 µM.
As for `c1ccc(-c2nc(N3CCNCC3)c3oc(-c4ccccc4)nc3n2)cc1`, the GI50 in assay [2] is 428 nM; in [3], 1540 nM; in assay [4], 1760 nM; in [5], 1800 nM; in [10], 1730 nM; in assay [7], 2310 nM. For the same compound, in assay [9], the GI50 was 1880 nM. Besides, the TGI in [2] amounted to 2.35 µM; in assay [3] it was 3.07 µM; in assay [4], 3.17 µM; in assay [5] it was 3.51 µM; in [10] it was 3.16 µM; in [7], 5.42 µM. For the same compound, the TGI in assay [9] came to 4.07 µM.
With `Nc1[nH]c(=O)nc2c1cnn2C1CCCCO1` (stereo unspecified), the TGI in assay [2], in assay [3], in assay [4], in [5], in assay [10] and in assay [6] was above 100 µM each time. In addition, the TGI in assay [7] and in assay [8] was above 100 µM each time.
Consider `CC(C)C(C(=O)O)N1C(=O)c2ccccc2C1=O` (stereo unspecified), for which the TGI in [1], in assay [2], in [3], in [5], in assay [10] and in assay [6] was above 100 µM each time. Besides, the TGI was 0.612 µM in assay [7], above 100 µM in [8] and above 100 µM in [9].
Consider `Cc1cc(C)nc(NS(=O)(=O)c2ccc(NC(=O)c3cccc4c(Nc5ccc(S(=O)(=O)Nc6cc(C)on6)cc5)c5ccccc5nc34)cc2)n1`, for which the TGI in [2] is 80.6 µM; in assay [3] it was 39.6 µM; in assay [4], 35.7 µM; in assay [10], 50 µM; in [6] it was 75.6 µM; in assay [7] it was 40 µM. The compound also returned a TGI in assay [8] above 100 µM.
With `CCCC1CCC(=C2C(=O)CCC2=O)O1` (stereo unspecified), the TGI in [1], in assay [2], in assay [3], in assay [4], in assay [5] and in assay [10] was above 100 µM each time. Besides, the TGI in [6], in assay [7], in [8] and in [9] was above 100 µM each time.
With `COc1cc(C(C)O)c[n+](Cc2ccccc2)c1` (stereo unspecified), the TGI in assay [2], in assay [3], in assay [4], in assay [5], in assay [10] and in assay [6] was above 100 µM each time. Further, the TGI in assay [7] and in [8] was above 100 µM in each case.
